Laboratory results published in patent US20090131443A1, “METHOD FOR PREVENTION AND/OR TREATMENT OF RHEUMATOID ARTHRITIS” (Kowa Co., Ltd., priority 2005, published 2009).

Test system: rats of a collagen-induced arthritis model
Assay: Both-hindlimb edema suppression in rats of a collagen-induced arthritis model
Format: in vivo, Lewis female rats (LEW/Crj)
Conditions: solo administration; for Edema Index: mean ± standard error, control group 6.85 ± 0.33; for Percent edema suppression: vs control group
Experimental: The effect on suppressing both-hindlimb edema of 2-benzyl-5-(4-chlorophenyl)-6-[4-(methylthio)phenyl]-2H-pyridazin-3-one (synthesized through the aforementioned method) and that of tacrolimus (Prograf (injection: 5 mg), product of Fujisawa Pharmaceutical Co., Ltd.) were determined both in the cases of combined administration and solo administration through the following procedure (by use of rats of a collagen-induced arthritis model) (FDA, CBER, CDER, CDRH: Guidance for industry—Clinical development programs for drugs, devices, and biological products for the treatment of rheumatoid arthritis (RA)—. (1999)). Lewis female rats (LEW/Crj) (obtained from Charles River Laboratories Japan, Inc.) were employed as test animals.
For each 8-week-old LEW/Crj rat, the volume of a portion from the ankle to the toe tip of each hindlimb was measured by means of a plethysmometer for small animals (TK-101CMP, product of Unicom), and a total of the two volumes was employed as a volume of the hindlimbs (hereinafter referred to as both-hindlimb volume) at the start of the test (hereinafter referred to as Pre value). By use of the Pre value as an index, the rats were divided into groups which are alike from group to group, through one-parameter-based block randomization.
The collagen emulsion for sensitization employed for inducing arthritis in rats was prepared by homogenizing a 0.3% Type II collagen liquid (product of Collagen Research Center), adjuvant peptide (product of Peptide Institute, Inc.), and adjuvant incomplete Freund (product of DIFCO) by means of a Handy Micro Homogenizer (product of Microtec Nition) under cooling with ice. The thus-prepared emulsion was intracutaneously injected to 10 sites in the dorsum of each rat at 0.1 mL/site, to thereby initially sensitize the rat. Seven days after initial sensitization, the same emulsion (0.12 mL) was intracutaneously injected to the tail head of the rat for booster sensitization.
Administration of one drug or two drugs was carried out the day after initial sensitization to day 26. To the 2-benzyl-5-(4-chlorophenyl)-6-[4-(methylthio)phenyl]-2H-pyridazin-3-one solo administration group, the drug was orally administered twice; in the morning (9:00 to 11:00) and in the evening (15:30 to 17:30) at a dose of 3 mg/kg. To the tacrolimus sole administration group, the drug was orally administered once in the afternoon (11:30 to 13:30) at a dose of 0.1, 0.3, or 1 mg/kg. To the combined administration group (2-benzyl-5-(4-chlorophenyl)-6-[4-(methylthio)phenyl]-2H-pyridazin-3-one and tacrolimus), 2-benzyl-5-(4-chlorophenyl)-6-[4-(methylthio)phenyl]-2H-pyridazin-3-one was orally administered in the morning (9:00 to 11:00) and in the evening (15:30 to 17:30) at a dose of 3 mg/kg, and tacrolimus was orally administered in the afternoon (11:30 to 13:30) at a dose of 0.3 mg/kg.
14 days, 18 days, 22 days, and 26 days after initial sensitization, both-hindlimb volume was measured. Volume of both-hindlimb edema was calculated by subtracting the Pre value from the thus-measured value.
Table 1 and FIG. 1 show Edema Index of the groups of rats, the groups being the 2-benzyl-5-(4-chlorophenyl)-6-[4-(methylthio)phenyl]-2H-pyridazin-3-one solo administration group, the tacrolimus solo administration group, and the combined administration group. The Edema Index of each group is an average of the indices obtained from 6 to 12 rats ±a standard error. Percent edema suppression represents a value obtained from the relationship:
100×[(average both-hindlimb edema volume of the control group)−(average both-hindlimb edema volume of each administration group)]/(average both-hindlimb edema volume of the control group). Relative factor represents a ratio of (average both-hindlimb edema volume of each administration group)/(average both-hindlimb edema volume of the control group).

CSc1ccc(-c2nn(Cc3ccccc3)c(=O)cc2-c2ccc(Cl)cc2)cc1 [2-benzyl-5-(4-chlorophenyl)-6-[4-(methylthio)phenyl]-2H-pyridazin-3-one]
Edema Index suppression effect (in words) (3 mg/kg): do not result in potent Edema Index suppression effects
Edema Index (3 mg/kg orally twice daily, day 1 to day 26 after initial sensitization, sum of both-hindlimb edema volumes at days 14, 18, 22, 26): 5.58 ± 0.63 mL
Relative factor (3 mg/kg orally twice daily, ratio of group average edema volume to control group): 0.81
Percent edema suppression (3 mg/kg orally twice daily): 19%

C=CC[C@@H]1/C=C(\C)C[C@H](C)C[C@H](OC)[C@H]2O[C@@](O)(C(=O)C(=O)N3CCCC[C@H]3C(=O)O[C@H](/C(C)=C/[C@@H]3CC[C@@H](O)[C@H](OC)C3)[C@H](C)[C@@H](O)CC1=O)[C@H](C)C[C@@H]2OC [Tacrolimus, tacrolimus]
Edema Index (0.1 mg/kg orally once daily, day 1 to day 26): 6.75 ± 0.31 mL
Relative factor (0.1 mg/kg orally once daily, ratio to control group): 0.99
Percent edema suppression (0.1 mg/kg orally once daily): 1%
Edema Index (0.3 mg/kg orally once daily, day 1 to day 26): 6.09 ± 0.30 mL
Relative factor (0.3 mg/kg orally once daily, ratio to control group): 0.89
Percent edema suppression (0.3 mg/kg orally once daily): 11%
Edema Index (1 mg/kg orally once daily, day 1 to day 26): 5.04 ± 0.20 mL
Relative factor (1 mg/kg orally once daily, ratio to control group): 0.74
Percent edema suppression (1 mg/kg orally once daily): 26%
Edema Index suppression effect (in words) (up to 1 mg/kg): do not result in potent Edema Index suppression effects
